In patent US12010997B2, “Systems, methods, and apparatuses for disinfection and decontamination” (priority 2020, dated 2024):

Test system: Phi6 bacteriophage (surrogate for Coronavirus and Ebola)
Format: cell-based

[O][Cl+][O-] [ClO2, chlorine dioxide]
log reduction of virions: 6 log | time in which 6-log reduction was achieved: less than 90 minutes | virions recovered from the coupons treated with ClO2 gas: no virions were recovered
